In patent US20030097221A1, “Detection and characterization of psychoactives using parallel multi-site assays in brain tissue” (priority 2001, published 2003):
“And” between values parts separate entries of the source, which are not always exact repeats. Identical values can stand only once.

Experiments:
Format in all cases: cell-based, rat
[1] = system: glutamate receptor-mediated evoked excitatory synaptic transmission, hippocampal slice CA1; experiment: Paired-pulse evoked fEPSP in CA1, Schaffer collateral stimulation (assays SC50, SC200), MED64 multi-electrode array; design: key to SC 50 ms Amplitude fEPSP 1st, Mean / SC 50 ms Amplitude fEPSP 2nd, Mean / SC 200 ms Widths fEPSP 1st, Mean / SC 200 ms Widths fEPSP 2nd, Mean: fractional change vs. last 5 min of pre-wash-in control phase
Procedure: (§1) A 17-24 day old Sprague Dawley rat was decapitated after anesthesia with halothane (2-bromo-2-chloro-1,1,1-trifluoroethane; Sigma; B4388), and the whole brain was removed. The brain was immediately soaked for ˜2 min in ice-cold, oxygenated preparation buffer of the following composition (in mM): 124 NaCl, 26 NaHCO3, 10 glucose, 3 KCl, 1.25 NaH2PO4, 2 CaCl2, and 2 MgSO4. Appropriate portions of the brain were trimmed and placed on the ice-cold stage of a vibrating tissue slicer (Leica, Nussloch, Germany; VT-1000S). The stage was immediately filled with both oxygenated and frozen preparation buffers. The thickness of each tissue slice was 350 μm. Each slice was gently taken off the blade, and immediately soaked in the oxygenated artificial cerebrospinal fluid (ACSF) for at least 1 hr at room temperature. Then a slice was placed on the center of the MED probe. The slice was positioned to cover the 8×8 array. After positioning the slice, the MED probe was immediately placed in a box filled with 95% O2 and 5% CO2.
During recording, the slices were continuously perfused with a solution of the following composition: ACSF (in mM): 124 NaCl, 26 NaHCO3, 10 glucose, 3 KCl, 1.25 kH2PO4, 2 CaCl2, 1 MgSO4. All compounds were bath applied at known concentrations and were prepared daily from frozen aliquots. Compounds were purchased from Sigma. Ampakines (CX516, CX546, CX554) were made fresh everyday, and used at concentrations: CX516, 250 μM; CX546, 250 μM; and CX554, 30 μM.
Baseline, application, and recovery time was usually at 10, 20, and 30 min respectively.
During electrophysiological recording, the slices on the MED probe were placed in a small CO2 incubator (Asahi Lifescience; model 4020) at 32° C. The slices were placed on an interface, and a moisturized with a 95% O2 and 5% CO2 gas mixture.
Evoked field potentials at all 64 sites (minus stimulation sites) were recorded simultaneously with the multichannel recording system (Panasonic: MED64 system) at a 20 kHz sampling rate. In the case of the evoked response, one of the planar microelectrodes out of the 64 available was used for the stimulating cathode. Bipolar constant-current pulses (10-50 μA; 0.1 ms) were produced by the data acquisition software via the isolator. The stimulating microelectrode was selected by the 64-switch box.
All assays employ paired-pulse stimulation at various rat hippocampal sites to elicit evoked responses. The resulting field EPSP recordings were analyzed using Matlab software (The MathWorks, Inc.) by computing several response measures such as amplitude, halfwidth, and negative area, which apply to both the first and second evoked reponses. Amplitude was defined as the maximum depolarization magnitude relative to the average baseline reading prior to the first stimulation pulse. Halfwidth was defined as the duration of the depolarization phase of the evoked response at half its maximum amplitude value. Negative area was obtained by taking the magnitude of the integral of the evoked response curve over all segments with the same polarity as the depolarization phase. This integral spans a time window of 25 msec beginning one msec after the stimulation pulse.
Amplitudes and halfwidths for both first and second elicited responses were computed for assays SC50, SC200, and CA3-1—50. For DG50 only first and second amplitudes were computed. Negative areas for first and second responses were computed for SC50, SC200, CA3-1—50, and MF50.
All response paramters were utilized to quantify candidate sample composition effects on the hippocampus. For a given response parameter, the candidate sample composition effect was defined as the percent change of the average measure during the last five minutes of the wash-in phase with respect to the average measure of the last five minutes of the preceding, pre-wash-in control phase. […]

[2] = system: glutamate receptor-mediated evoked excitatory synaptic transmission, hippocampal slice dentate gyrus; experiment: Paired-pulse evoked fEPSP in dentate gyrus (assay DG50), MED64
Procedure: as §1, with “CO2. […]” for “CO2.”
(§2) Evoked field potentials at all 64 sites (minus stimulation sites) were recorded simultaneously with the multichannel recording system (Panasonic: MED64 system) at a 20 kHz sampling rate. […]
(§3) All assays employ paired-pulse stimulation at various rat hippocampal sites to elicit evoked responses. The resulting field EPSP recordings were analyzed using Matlab software (The MathWorks, Inc.) by computing several response measures such as amplitude, halfwidth, and negative area, which apply to both the first and second evoked reponses. Amplitude was defined as the maximum depolarization magnitude relative to the average baseline reading prior to the first stimulation pulse. […]
The polarity of the evoked responses for assay DG50 was reversed before analysis because of the inverted voltage values recorded by the DG50 electrode. Assays SC50, SC200, MF50, and CA3-1—50, however, were analyzed without such a reversal. […]
(§4) All response paramters were utilized to quantify candidate sample composition effects on the hippocampus. […]

[3] = system: glutamate receptor-mediated evoked excitatory synaptic transmission, hippocampal slice mossy fibers; experiment: Paired-pulse evoked fEPSP, mossy fibers (assay MF50), MED64; conditions: 250 μM; 50 ms inter-pulse delay
Procedure: A 17-24 day old Sprague Dawley rat was decapitated after anesthesia with halothane (2-bromo-2-chloro-1,1,1-trifluoroethane; Sigma; B4388), and the whole brain was removed. The brain was immediately soaked for ˜2 min in ice-cold, oxygenated preparation buffer of the following composition (in mM): 124 NaCl, 26 NaHCO3, 10 glucose, 3 KCl, 1.25 NaH2PO4, 2 CaCl2, and 2 MgSO4. Appropriate portions of the brain were trimmed and placed on the ice-cold stage of a vibrating tissue slicer (Leica, Nussloch, Germany; VT-1000S). The stage was immediately filled with both oxygenated and frozen preparation buffers. The thickness of each tissue slice was 350 μm. […]
as §2, §3

[4] = system: hippocampal slice regions (CA1, DG, MF); experiment: Comparison between regions of the slice, area under the curve for all 4 assays (FIG. 9); conditions: prediction drawn from the results of FIG. 9
Procedure: All assays employ paired-pulse stimulation at various rat hippocampal sites to elicit evoked responses. The resulting field EPSP recordings were analyzed using Matlab software (The MathWorks, Inc.) by computing several response measures such as amplitude, halfwidth, and negative area, which apply to both the first and second evoked reponses. Amplitude was defined as the maximum depolarization magnitude relative to the average baseline reading prior to the first stimulation pulse. Halfwidth was defined as the duration of the depolarization phase of the evoked response at half its maximum amplitude value. Negative area was obtained by taking the magnitude of the integral of the evoked response curve over all segments with the same polarity as the depolarization phase. This integral spans a time window of 25 msec beginning one msec after the stimulation pulse. […]
as §4
To compare the response of tissue slices to candidate sample compositions between different regions of the slice, the area under the curve for all 4 assays was calculated.
To compare the effect of compounds in candidate sample compositions between different regions of a tissue slice, the area under the curve for all 4 assays was calculated. […]

[5] = CX546 250 μM, individual slice files, normalized change over control
[6] = CX546 250 μM, n = 5, normalized change over control

O=C(c1ccc2c(c1)OCCO2)N1CCCCC1 [CX546]
half-width of both responses in CA1 ([1]; 250 μM, 50 ms or 200 ms delay between stimulation pulses): increase in the half-width
change of the first response (amplitude) ([1]; 250 μM, 50 ms protocol): no change
decrease in the second response amplitude ([1]; 250 μM, 50 ms protocol): 9±3%
effect on amplitude of both responses ([1]; 250 μM, 200 ms protocol): no effect
increase of the halfwidth of first and second fEPSP ([1]; 250 μM, 200 ms protocol, summary of Table 2): 14-15%
kind of modulation of the responses in CA1 (halfwidth vs amplitude) ([1]; CX516, CX546 250 μM, CX554 30 μM): selectively increases halfwidth but not the amplitude
SC 50 ms Amplitude fEPSP 1st [1, 5]: 0.063 and 0.087 and 0.012 and −0.022 and 0.025
SC 50 ms Amplitude fEPSP 2nd [1, 5]: 0.022 and −0.124 (2×) and −0.130 and −0.088
SC 50 ms Widths fEPSP 1st [1, 5]: 0.096 and 0.155 and 0.114 and 0.202 and 0.102
SC 50 ms Widths fEPSP 2nd [1, 5]: 0.067 and 0.026 and −0.025 and 0.065 and 0.031
SC 200 ms Amplitude fEPSP 1st [1, 5]: 0.064 and 0.083 and 0.028 and −0.007 and 0.021
SC 200 ms Amplitude fEPSP 2nd [1, 5]: 0.047 and 0.061 and 0.011 and −0.015 and 0.013
SC 200 ms Widths fEPSP 1st [1, 5]: 0.089 and 0.166 and 0.141 and 0.252 and 0.105
SC 200 ms Widths fEPSP 2nd [1, 5]: 0.102 and 0.207 and 0.180 and 0.189 and 0.132
SC 50 ms Amplitude fEPSP 1st, Change over Control (%) ([1]; CX546 250 μM, n = 5): 3.296%
SC 50 ms Amplitude fEPSP 2nd, Change over Control (%) ([1]; CX546 250 μM, n = 5): −8.884%
SC 50 ms Widths fEPSP 1st, Change over Control (%) ([1]; CX546 250 μM, n = 5): 13.386%
SC 50 ms Widths fEPSP 2nd, Change over Control (%) ([1]; CX546 250 μM, n = 5): 3.276%
SC 200 ms Amplitude fEPSP 1st, Change over Control (%) ([1]; CX546 250 μM, n = 5): 3.764%
SC 200 ms Amplitude fEPSP 2nd, Change over Control (%) ([1]; CX546 250 μM, n = 5): 2.310%
SC 200 ms Widths fEPSP 1st, Change over Control (%) ([1]; CX546 250 μM, n = 5): 15.064%
SC 200 ms Widths fEPSP 2nd, Change over Control (%) ([1]; CX546 250 μM, n = 5): 16.206%
SC 50 ms Amplitude fEPSP 1st, Mean [1, 6]: 0.033
SC 50 ms Amplitude fEPSP 2nd, Mean [1, 6]: −0.089
SC 50 ms Widths fEPSP 1st, Mean [1, 6]: 0.134
SC 50 ms Widths fEPSP 2nd, Mean [1, 6]: 0.033
SC 200 ms Amplitude fEPSP 1st, Mean [1, 6]: 0.038
SC 200 ms Amplitude fEPSP 2nd, Mean [1, 6]: 0.023
SC 200 ms Widths fEPSP 1st, Mean [1, 6]: 0.151
SC 200 ms Widths fEPSP 2nd, Mean [1, 6]: 0.162
area of the second response (fEPSP) in CA1 ([1]; area under the curve, representative slices, FIG. 9): decreased
responses recorded in dentate gyrus (amplitude) ([2]; 250 μM, 50 ms inter-pulse delay): decrease in the amplitude
second response (fEPSP) in DG ([2]; area under the curve, representative slices, FIG. 9, CX546 250 μM, CX554 30 μM per Example 3): not noticeably altered
mossy fibers' response (area) [3]: increase
degree to which ampakines enhance activation of interneurons (rank order) [4]: CX554>CX546>CX516
